Reference: US10626092B2, “Polymorphic forms of 3-[(2-butyl-1-(2-diethylamino-ethyl)-1H-benzoimidazol-5-yl]-N-hydroxy-acrylamide and uses thereof” (MEI PHARMA, INC., priority 2016, dated 2020)
Where a name gives a salt, the structure may show the parent alone.

Columns and labels:
Type in all cases: physicochemical
[1] = Physical stability under accelerated aging conditions (40° C./70% RH), physical form re-determined by HT-XRPD
Protocol: Solids were analyzed for their physical stability under accelerated aging conditions (40° C./70% RH) for 48 hours. After the exposure, the physical form was determined again by HT-XRPD analysis. The physico-chemical characterization of the forms was done by TGMS analysis to determine the solvation state of the form and thermal events and by DSC analysis to confirm the thermal events observed in the SDTA signal of the TGA. (See Examples for details.)
Suspensions of 3-[2-butyl-1-(2-diethylamino-ethyl)-1H-benzoimidazol-5-yl]-N-hydroxy-acrylamide dihydrochloride monohydrate (Form 1) and 2.5 hydrate (Form 3) were prepared in 12 process relevant solvent systems. The suspensions were cycled between 5° C. and 50° C. followed by aging at 25° C. for 72 hours. […] Upon completion of the incubation time, the solids were collected, dried under ambient conditions and dried under deep vacuum before being analyzed by HT-XRPD. All the measured solids were exposed to accelerated ageing conditions (2 days at 40° C./70% RH) followed by re-analysis by HT-XRPD.
Long-term slurry conversion experiments were carried out by preparing suspensions of 3-[2-butyl-1-(2-diethylamino-ethyl)-1H-benzoimidazol-5-yl]-N-hydroxy-acrylamide dihydrochloride 2.5 hydrate (Form 3) and monohydrate (Form 1) in 12 different solvents and solvent mixtures. Approximately 30 mg of the specific form was dosed in a standard HPLC vial and aliquots of 100 μL of solvent until a suspension was formed. The suspensions were stirred for 2 weeks at room temperature and for 1 week at 50° C. The solids were isolated from the mother liquor and analyzed by HT-XRPD after mild drying under ambient conditions (ambient) and after thorough drying under vacuum (vacuum). All the solids were exposed to accelerated ageing conditions (2 days at 40° C./70% RH) and re-analyzed by HT-XRPD.
(§1) The competitive slurry experiments were performed in ethanol/water mixtures and methanol/water mixtures within a water activity range of 0-0.2. Approximately 50 mg of each pracinostat dihydrochloride solid form 2.5 hydrate and monohydrate were solid dosed in 1.8 mL HPLC vials. Aliquots of 100 μL of the different water mixtures were added until about half of the amount of solid was in solution. Subsequently, the vials were stirred for one week at 5° C., 21° C. and 50° C. Upon completion of the equilibration time, the solids were separated from the liquids by centrifugation. The solids were dried under ambient conditions (ambient) and dried under vacuum (vacuum) before HT-XRPD analysis. All solid samples were exposed to accelerated gaining conditions (40° C. and 70% RH) for two days (AAC). The water content in the liquid phase was determined Karl Fischer analysis.

Variable humidity XRPD = settings: variable humidity XRPD at 30° C.; dihydrochloride monohydrate
From the text: (§2) The analytical method is described herein.
as §2
(§3) For variable humidity and temperature experiments the ANSYCO HT chamber was used, installed within the D8 Advance system diffractometer (Bruker) designed with Brag-Brentano geometry and equipped with LynxEye solid state detector. The radiation used for collecting the data was CuKα1 (λ=1.54056 Å) monochromatized by germanium crystal. The material was placed on a fixed sample holder that was mounted inside the chamber.

[2] = Variable temperature XRPD; settings: 25° C. to 143° C., cooling to 25° C., reheating to 155° C.
Protocol: To investigate the phase interconversions upon temperature exposure, a variable temperature XRPD analysis on 3-[2-butyl-1-(2-diethylamino-ethyl)-1H-benzoimidazol-5-yl]-N-hydroxy-acrylamide dihydrochloride 2.5 hydrate was performed. The experiment was run between 25° C. to 130° C. with cooling back to 25° C. at the end. […] After reaching a temperature of 130° C., the material was cooled back to 25° C.
A variable temperature XRPD experiment with 3-[2-butyl-1-(2-diethylamino-ethyl)-1H-benzoimidazol-5-yl]-N-hydroxy-acrylamide dihydrochloride monohydrate was conducted to investigate the solid form conversion that occurred upon heating. The experiment was run between 25° C. to 143° C. followed by cooling to 25° C., reheating to 155° C. and then cooling again to 25° C. (see FIG. 19).
as §3
VT-XRPD: The temperature variation rate was 10° C./min and the equilibration time, prior to starting the data collection at each temperature, was 8 min. The patterns were collected in the range 4-41°2θ, with a step of 0.01573°2θ and measuring time per step of 1 sec. The data collection time, per temperature, was 40 min.

[3] = Competitive slurry conversion (thermodynamic stability) of Form 1 and Form 3; settings: one week slurry
Protocol: as §1, with “Approximately 50 mg of each solid form were solid dosed in a standard HPLC vial followed by solvent addition. The competitive” for “The competitive”, “in solution. […] Upon completion” for “in solution. Subsequently, the vials were stirred for one week at 5° C., 21° C. and 50° C. Upon completion”

[4] = Long-term slurry conversion experiments
Protocol: Approximately 30 mg of the specific form was dosed in a standard HPLC vial and aliquots of 100 μL of solvent until a suspension was formed. […] The solids were isolated from the mother liquor and analyzed by HT-XRPD after mild drying under ambient conditions (ambient) and after thorough drying under vacuum (vacuum). All the solids were exposed to accelerated ageing conditions (2 days at 40° C./70% RH) and re-analyzed by HT-XRPD.

Thermocycling studies = settings: ethanol, absolute or extra dry; dihydrochloride monohydrate
Protocol: The suspensions were cycled between 5° C. and 50° C. followed by aging at 25° C. for 72 hours. […] Upon completion of the incubation time, the solids were collected, dried under ambient conditions and dried under deep vacuum before being analyzed by HT-XRPD. All the measured solids were exposed to accelerated ageing conditions (2 days at 40° C./70% RH) followed by re-analysis by HT-XRPD.

- solid form after accelerated aging conditions ([1]; 2 days at 40° C./70% RH): converted to the 2.5 hydrate Form 3
- Stability ([1]; physical stability under accelerated aging conditions (40° C./70% RH) for 48 hours, dihydrochloride monohydrate): Unstable
- relative humidity at which the form is physically stable (Variable humidity XRPD): 10-85 % RH
- solid form conversion upon heating [2]: No solid form conversions were observed
- water content of the solvent system at which the form is the most stable / obtained form ([3]; ethanol/water, 5° C. (below ambient), dihydrochloride monohydrate): below 2%
- water content of the solvent system at which the form is the most stable form ([3]; ethanol/water, 50° C. (elevated temperatures), dihydrochloride monohydrate): 2-4%
- water content of the solvent system at which the form is the most stable form ([3]; methanol/water, 5° C.): below 6%
- solid form after slurry ([4]; no water present in the solvent system): conversion to the anhydrous Form 9
- solid form after thermocycling (Thermocycling studies): transformed into the anhydrous Form 9
Compound: CCCCc1nc2cc(/C=C/C(=O)NO)ccc2n1CCN(CC)CC [Form 1, 3-[2-butyl-1-(2-diethylamino-ethyl)-1H-benzoimidazol-5-yl]-N-hydroxy-acrylamide dihydrochloride monohydrate]
- solid form after slurry ([4]; all ethanol/water and methanol/water mixtures at ambient conditions): transformed into the 2.5 hydrate (Form 3)
